Laboratory results: PMC8041751, “Structural basis for an exceptionally strong preference for asparagine residue at the S2 subsite of Stenotrophomonas maltophilia dipeptidyl peptidase 7” (Scientific Reports, 2021)
Residues, ends and D or L forms follow the SMILES beside them.

How the values were obtained:
PgDPP11 = PgDPP11 (Porphyromonas gingivalis, UniProt B2RID1); assay: biochemical
Procedure: Figure 2 Correlation diagrams between the hydrophobicity index (H.I.) of P2-amino acid and residual DPP activities of S46 peptidases. (a) SmDPP7. The outlier dipeptides Asn-Tyr and Trp-Tyr are coloured in red and blue, respectively (see text). (b) PgDPP7. Tyr-Tyr-MCA hydrolysis of PgDPP7 was inhibited by Xaa-Tyr dipeptide. Residual activity was measured under conditions where 200 µM dipeptides and 200 µM Tyr-Tyr-MCA were added into the reaction solution. (c) DPP11 from S. maltophilia (SmDPP11). (d) PgDPP11. For DPP11s, Leu-Asp-MCA hydrolysis was inhibited by Xaa-Asp dipeptide. Residual activity was measured under conditions where 100 µM dipeptides and 100 µM Leu-Asp-MCA were added into the reaction solution. The hydrophobicity indices of the amino acids were adopted from Sereda et al., 1994 and Mohera et al. 1995[25],[26]. R is the correlation coefficient. The standard deviations were obtained from three independent experiments.
(§1) The dipeptide library was purchased from AnaSpec (Fremont, CA, US). Ile-Tyr and Arg-Tyr were synthesized by Eurofins Genomics (Tokyo, Japan). Cys-Tyr and Cys-Asp could not be purchased commercially. Different concentrations (3.13, 6.25, 12.5, 25, 50, 100, and 200 µM) of dipeptides as the inhibitor and 200 µM Tyr-Tyr-MCA (GenScript, NJ, US) as the substrate for DPP7 were added into a reaction buffer consisting of 50 mM sodium phosphate buffer pH 7.0, 5 mM EDTA and 0.005% Tween 20. For DPP11s, different concentrations (1.56, 3.13, 6.25, 12.5, 25, 50, and 100 µM) of dipeptides as the inhibitor and 100 µM Leu-Asp-MCA (Peptide Institute, Osaka, Japan) as the substrate were used. The enzyme reaction was performed at 298 K for 20 min and standard deviations were calculated from three independent experiments. Half-maximal inhibitory concentration (IC50) values were determined by fitting to a sigmoid curve (4-parameter logistic curve) using ImageJ software[35] and inhibition constants (Ki) were calculated using the Cheng-Prusoff Equation[36]. The fluorescence intensity of the released MCA was measured with the same method of determination of kinetics parameters toward dipeptidyl MCA.

SmDPP7 = assay: Inhibition assay using dipeptide library, Tyr-Tyr-MCA hydrolysis; assay type: biochemical, Stenotrophomonas maltophilia; conditions: Xaa-Tyr as competitive inhibitor; substrate 200 µM Tyr-Tyr-MCA; pH 7.0, 298 K; Ki from IC50 by Cheng-Prusoff
Procedure: Figure 1 Effect of Xaa-Tyr dipeptides on the hydrolytic activity of SmDPP7 towards synthetic substrate Tyr-Tyr-MCA. Inhibition assay was performed as described in “Materials and methods”. Residual activity was measured under conditions where 200 µM Xaa-Tyr dipeptide and 200 µM Tyr-Tyr-MCA, synthetic substrate were added into the reaction solution. […] The standard deviations were obtained from three independent experiments.
as §1

[1] = of the amino acid; ref 25,26 (Sereda et al. and Mohera et al.); cited from earlier work
SmDPP7 R218Q mutant = assay: Kinetic parameters toward dipeptidyl MCA; assay type: biochemical, Stenotrophomonas maltophilia
wild-type SmDPP7 = assay: Kinetic parameters toward dipeptidyl MCA; assay type: biochemical, Stenotrophomonas maltophilia; conditions: pH 7.0, 298 K
Procedure: (§2) Kinetic parameters were determined by fitting the experimental data to the Michaelis–Menten equation using Excel Solver (Microsoft, WA, US) by nonlinear least-squares fitting with different concentrations of glycyl-L-tyrosyl-4-methylcoumaryl-7-amide (3.91, 7.81, 15.6, 31.3, 62.5, 125, 250, and 500 µM; Gly-Tyr-MCA; GenScript, NJ, US), L-tyrosyl-L-tyrosyl-4-methylcoumaryl-7-amide (1.56, 3.13, 6.25, 12.5, 25, 50, 100, and 200 µM; Tyr-Tyr-MCA; GenScript, NJ, US), L-asparaginyl-L-tyrosyl-4-methylcoumaryl-7-amide (1.56, 3.13, 6.25, 12.5, 25, 50, 100, and 200 µM; Asn-Tyr-MCA; GenScript, NJ, US), and L-leucinyl-L-asparaginic acid-4-methylcoumaryl-7-amide (0.781, 1.56, 3.13, 6.25, 12.5, 25, 50, and 100 µM; Leu-Asp-MCA; Peptide Institute, Osaka, Japan) as a substrate. The enzyme reaction was performed in a reaction buffer consisting of 50 mM sodium phosphate buffer pH 7.0, 5 mM EDTA, and 0.005% Tween 20 at 298 K for 20 min and standard deviations were calculated from three independent experiments. […] For SmDPP7 (wild-type and mutants), concentrations of the purified enzymes were 10, 2, and 2 nM for the hydrolyses of Gly-Tyr-MCA, Tyr-Tyr-MCA, and Asn-Tyr-MCA, respectively. Concentration of purified PgDPP7 used for determining kinetic parameters of Tyr-Tyr-MCA hydrolysis was 25 nM. For SmDPP11 and PgDPP11, concentrations of the purified enzymes used for determining kinetic parameters of Leu-Asp-MCA hydrolysis were 0.5 nM and 1 nM, respectively. The fluorescence intensity of the released MCA was measured with excitation at 355 nm and emission at 460 nm using an Infinite 200 PRO microplate reader (Tecan, Switzerland).

SmDPP7 F671A mutant = assay: Kinetic parameters toward dipeptidyl MCA; assay type: biochemical, Stenotrophomonas maltophilia
Procedure: (§3) To test the roles of the residues located in the S2 subsite for P2 residue recognition by SmDPP7, we replaced the following residues with alanine and analysed the enzymatic activities of the mutant enzymes on synthetic substrates, Gly-Tyr-MCA, Tyr-Tyr-MCA, and Asn-Tyr-MCA (Table 2). The mutated residues and their estimated roles were: Lys206, Arg218, Thr220, and Phe671 for interaction with the P2 side chain.
as §2

SmDPP7 T220A mutant = assay: Kinetic parameters toward dipeptidyl MCA; assay type: biochemical, Stenotrophomonas maltophilia
Procedure: as §3, §2

SmDPP7 K206A mutant = assay: Kinetic parameters toward dipeptidyl MCA; assay type: biochemical, Stenotrophomonas maltophilia
Procedure: as §3, §2

SmDPP7 R218K mutant = assay: Kinetic parameters toward dipeptidyl MCA; assay type: biochemical, Stenotrophomonas maltophilia
Procedure: as §3, §2

SmDPP7 R218A mutant = assay: Kinetic parameters toward dipeptidyl MCA; assay type: biochemical, Stenotrophomonas maltophilia; set-up: key: “–” means not determined due to low activity
Procedure: as §3, §2

PgDPP11, sequence (B2RID1 22-720): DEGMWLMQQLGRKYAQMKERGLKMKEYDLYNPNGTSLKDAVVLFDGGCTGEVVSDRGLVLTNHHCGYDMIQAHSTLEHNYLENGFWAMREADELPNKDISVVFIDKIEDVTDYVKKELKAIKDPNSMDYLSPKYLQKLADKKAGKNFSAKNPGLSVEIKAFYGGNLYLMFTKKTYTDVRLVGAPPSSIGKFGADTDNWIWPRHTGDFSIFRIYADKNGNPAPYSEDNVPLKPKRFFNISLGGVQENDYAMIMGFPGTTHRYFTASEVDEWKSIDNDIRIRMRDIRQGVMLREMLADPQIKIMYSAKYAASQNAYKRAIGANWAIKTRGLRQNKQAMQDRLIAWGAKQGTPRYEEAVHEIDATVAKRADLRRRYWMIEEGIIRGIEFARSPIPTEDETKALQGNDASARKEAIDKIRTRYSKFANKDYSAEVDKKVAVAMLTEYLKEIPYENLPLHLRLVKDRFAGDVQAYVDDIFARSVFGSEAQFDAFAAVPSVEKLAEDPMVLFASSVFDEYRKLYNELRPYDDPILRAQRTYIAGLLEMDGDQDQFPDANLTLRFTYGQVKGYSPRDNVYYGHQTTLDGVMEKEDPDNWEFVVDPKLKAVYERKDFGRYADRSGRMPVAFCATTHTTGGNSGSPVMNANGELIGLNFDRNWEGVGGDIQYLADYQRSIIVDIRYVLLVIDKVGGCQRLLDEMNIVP

N[C@@H](Cc1c[nH]cn1)C(=O)N[C@@H](CC(=O)O)C(=O)O [His-Asp] (H-His-Asp-OH)
Ki (PgDPP11): > 5.11 µM

CC[C@H](C)[C@H](N)C(=O)N[C@@H](CC(=O)O)C(=O)O [Ile-Asp] (H-Ile-Asp-OH)
Ki (PgDPP11): > 5.11 µM

Ala-Tyr
Ki (SmDPP7): > 58 µM

N[C@@H](Cc1c[nH]c2ccccc12)C(=O)O [Trp]
H.I. of P2 aa (hydrophobicity index) [1]: 97

N[C@@H](CO)C(=O)N[C@@H](CC(=O)O)C(=O)O [Ser-Asp] (H-Ser-Asp-OH)
Ki (PgDPP11): > 5.11 µM

L-asparaginyl-L-tyrosyl-4-methylcoumaryl-7-amide [Asn-Tyr-MCA]
Km (SmDPP7 R218Q mutant): 390 ± 14 µM
kcat (SmDPP7 R218Q mutant): 0.198 ± 0.006 s⁻¹
Km (wild-type SmDPP7): 51.3 ± 1.6 µM
kcat (wild-type SmDPP7): 3.67 ± 0.12 s⁻¹
Km (SmDPP7 F671A mutant): 17.4 ± 1.4 µM
kcat (SmDPP7 F671A mutant): 0.230 ± 0.012 s⁻¹
Km (SmDPP7 T220A mutant): 66.6 ± 1.5 µM
kcat (SmDPP7 T220A mutant): 2.60 ± 0.04 s⁻¹
Km (SmDPP7 K206A mutant): 54.1 ± 2.1 µM
kcat (SmDPP7 K206A mutant): 3.47 ± 0.02 s⁻¹
Km (SmDPP7 R218K mutant): 277 ± 6 µM
kcat (SmDPP7 R218K mutant): 0.183 ± 0.008 s⁻¹
Km (SmDPP7 R218A mutant): –
kcat (SmDPP7 R218A mutant): –
kcat/Km (SmDPP7 R218A mutant): –

Gly-Tyr
Ki (SmDPP7): > 58 µM

C[C@@H](O)[C@H](N)C(=O)N[C@@H](CC(=O)O)C(=O)O [Thr-Asp] (H-Thr-Asp-OH)
Ki (PgDPP11): > 5.11 µM

N[C@@H](CC(=O)O)C(=O)N[C@@H](CC(=O)O)C(=O)O [Asp-Asp] (H-Asp-Asp-OH)
Ki (PgDPP11): > 5.11 µM

N[C@@H](Cc1c[nH]cn1)C(=O)O [His]
H.I. of P2 aa (hydrophobicity index) [1]: 8

CC[C@H](C)[C@H](N)C(=O)O [Ile]
H.I. of P2 aa (hydrophobicity index) [1]: 99

NCCCC[C@H](N)C(=O)N[C@@H](CC(=O)O)C(=O)O [Lys-Asp] (H-Lys-Asp-OH)
Ki (PgDPP11): > 5.11 µM

CC(C)[C@H](N)C(=O)O [Val]
H.I. of P2 aa (hydrophobicity index) [1]: 76

Asp-Tyr
Ki (SmDPP7): > 58 µM

Ser-Tyr
Ki (SmDPP7): > 58 µM

O=C(O)C[C@H](NC(=O)[C@@H]1CCCN1)C(=O)O [Pro-Asp] (H-Pro-Asp-OH)
Ki (PgDPP11): > 5.11 µM

His-Tyr
Ki (SmDPP7): > 58 µM

NC(=O)CC[C@H](N)C(=O)N[C@@H](CC(=O)O)C(=O)O [Gln-Asp] (H-Gln-Asp-OH)
Ki (PgDPP11): > 5.11 µM

NCC(=O)N[C@@H](CC(=O)O)C(=O)O [Gly-Asp] (H-Gly-Asp-OH)
Ki (PgDPP11): > 5.11 µM

N[C@@H](CCC(=O)O)C(=O)N[C@@H](CC(=O)O)C(=O)O [Glu-Asp] (H-Glu-Asp-OH)
Ki (PgDPP11): > 5.11 µM

C[C@H](N)C(=O)N[C@@H](CC(=O)O)C(=O)O [Ala-Asp] (H-Ala-Asp-OH)
Ki (PgDPP11): > 5.11 µM

NC(=O)C[C@H](N)C(=O)N[C@@H](CC(=O)O)C(=O)O [Asn-Asp] (H-Asn-Asp-OH)
Ki (PgDPP11): 4.06 ± 0.16 µM

N[C@@H](Cc1ccccc1)C(=O)N[C@@H](CC(=O)O)C(=O)O [Phe-Asp] (H-Phe-Asp-OH)
Ki (PgDPP11): 5.11 ± 0.06 µM

Pro-Tyr
Ki (SmDPP7): > 58 µM

N[C@@H](Cc1ccccc1)C(=O)O [Phe]
H.I. of P2 aa (hydrophobicity index) [1]: 100

C[C@H](N)C(=O)O [Ala]
H.I. of P2 aa (hydrophobicity index) [1]: 41

CSCC[C@H](N)C(=O)N[C@@H](CC(=O)O)C(=O)O [Met-Asp] (H-Met-Asp-OH)
Ki (PgDPP11): > 5.11 µM

CSCC[C@H](N)C(=O)O [Met]
H.I. of P2 aa (hydrophobicity index) [1]: 74

N[C@@H](Cc1ccc(O)cc1)C(=O)O [Tyr]
H.I. of P2 aa (hydrophobicity index) [1]: 63

CC(C)C[C@H](N)C(=O)N[C@@H](CC(=O)O)C(=O)O [Leu-Asp] (H-Leu-Asp-OH)
Ki (PgDPP11): 3.35 ± 0.23 µM

N[C@@H](Cc1ccc(O)cc1)C(=O)N[C@@H](CC(=O)O)C(=O)O [Tyr-Asp] (H-Tyr-Asp-OH)
Ki (PgDPP11): > 5.11 µM

N[C@@H](Cc1c[nH]c2ccccc12)C(=O)N[C@@H](CC(=O)O)C(=O)O [Trp-Asp] (H-Trp-Asp-OH)
Ki (PgDPP11): 1.36 ± 0.06 µM

N=C(N)NCCC[C@H](N)C(=O)N[C@@H](CC(=O)O)C(=O)O [Arg-Asp] (H-Arg-Asp-OH)
Ki (PgDPP11): > 5.11 µM

CC(C)[C@H](N)C(=O)N[C@@H](CC(=O)O)C(=O)O [Val-Asp]
Ki (PgDPP11): > 5.11 µM

L-tyrosyl-L-tyrosyl-4-methylcoumaryl-7-amide [Tyr-Tyr-MCA]
Km (SmDPP7 R218Q mutant): 275 ± 11 µM
kcat (SmDPP7 R218Q mutant): 0.0403 ± 0.0004 s⁻¹
Km (wild-type SmDPP7): 81.7 ± 3.4 µM
kcat (wild-type SmDPP7): 3.83 ± 0.09 s⁻¹
Km (SmDPP7 F671A mutant): 463 ± 88 µM
kcat (SmDPP7 F671A mutant): 1.54 ± 0.18 s⁻¹
Km (SmDPP7 T220A mutant): 46.4 ± 2.4 µM
kcat (SmDPP7 T220A mutant): 1.82 ± 0.07 s⁻¹
Km (SmDPP7 K206A mutant): 55.8 ± 1.5 µM
kcat (SmDPP7 K206A mutant): 3.52 ± 0.04 s⁻¹
Km (SmDPP7 R218K mutant): 251 ± 6 µM
kcat (SmDPP7 R218K mutant): 0.240 ± 0.003 s⁻¹
Km (SmDPP7 R218A mutant): –
kcat (SmDPP7 R218A mutant): –
kcat/Km (SmDPP7 R218A mutant): –

Glu-Tyr
Ki (SmDPP7): > 58 µM

glycyl-L-tyrosyl-4-methylcoumaryl-7-amide [Gly-Tyr-MCA]
Km (SmDPP7 R218Q mutant): 717 ± 63 µM
kcat (SmDPP7 R218Q mutant): 0.0365 ± 0.0018 s⁻¹
Km (wild-type SmDPP7): 183 ± 4 µM
kcat (wild-type SmDPP7): 0.702 ± 0.022 s⁻¹
Km (SmDPP7 F671A mutant): 688 ± 38 µM
kcat (SmDPP7 F671A mutant): 0.191 ± 0.009 s⁻¹
Km (SmDPP7 T220A mutant): 215 ± 10 µM
kcat (SmDPP7 T220A mutant): 0.454 ± 0.010 s⁻¹
Km (SmDPP7 K206A mutant): 201 ± 10 µM
kcat (SmDPP7 K206A mutant): 0.751 ± 0.015 s⁻¹
Km (SmDPP7 R218K mutant): 586 ± 40 µM
kcat (SmDPP7 R218K mutant): 0.0238 ± 0.0011 s⁻¹
Km (SmDPP7 R218A mutant): –
kcat (SmDPP7 R218A mutant): –
kcat/Km (SmDPP7 R218A mutant): –
